The EC50 is the concentration that produces a half-maximal response. A lower EC50 goes with a more potent agent.

A value given as a limit tells only on which side of the number the result lay.

Drawing on patent publication US20240262832A1, “SMALL MOLECULE MODULATORS OF GLUCOCEREBROSIDASE ACTIVITY AND USES THEREOF” (Vanqua Bio, Inc., priority 2021, published 2024), this text covers EC50 for 31 compounds.

The assay deals with T1, GCase (Homo sapiens, UniProt P04062).
T1 construct: endogenous in cells; host or cells: HeLa cells
T1 sequence (P04062 40-536): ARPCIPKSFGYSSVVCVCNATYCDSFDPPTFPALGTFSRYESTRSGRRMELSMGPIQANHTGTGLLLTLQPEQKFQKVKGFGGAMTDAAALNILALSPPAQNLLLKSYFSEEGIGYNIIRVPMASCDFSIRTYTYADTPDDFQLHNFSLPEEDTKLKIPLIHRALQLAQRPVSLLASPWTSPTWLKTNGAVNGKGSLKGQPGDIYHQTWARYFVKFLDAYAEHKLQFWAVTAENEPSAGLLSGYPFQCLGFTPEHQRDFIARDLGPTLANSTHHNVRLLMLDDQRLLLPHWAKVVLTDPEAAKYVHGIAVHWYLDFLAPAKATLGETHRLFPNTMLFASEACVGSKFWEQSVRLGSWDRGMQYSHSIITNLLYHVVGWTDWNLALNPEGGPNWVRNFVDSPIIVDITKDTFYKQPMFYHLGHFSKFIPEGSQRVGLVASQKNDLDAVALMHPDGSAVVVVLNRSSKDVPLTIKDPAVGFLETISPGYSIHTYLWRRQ
The experiment in a line: activation of GCase in a live cell PFB assay in HELA cells. The class given is cell-based.
The compound `FC(F)Cn1ncc2ncc(N3CCC(COc4cc(C(F)(F)F)ccn4)CC3)nc21` [Compound 324, 2-({1-[1-(2,2-Difluoroethyl)-1H-pyrazolo[3,4-b]pyrazin-6-yl]piperidin-4-yl}methoxy)-4-(trifluoromethyl)pyridine] showed an EC50 of 10 to 50 µM.
As to `CCCC(C(=O)N1CCCC(COc2ccccc2)C1)n1nccc1C1CC1` (stereo not shown) [Compound 9], the EC50 is 10 to 50 µM.
Compound `FC(F)Cn1ncc2ncc(N3CCC(F)(F)C(COc4cccc(C(F)(F)F)n4)C3)nc21` (stereo not shown) [Compound 42, 2-({1-[1-(2,2-Difluoroethyl)-1H-pyrazolo[3,4-b]pyrazin-6-yl]-4,4-difluoropiperidin-3-yl}methoxy)-6-(trifluoromethyl)pyridine] displayed an EC50 of 10 to 50 µM.
The value for `C[C@@H]1CC[C@H](COc2ccnc(C(F)(F)F)c2)CN1c1cnc2cnn(CC(F)F)c2n1` [Compound 278, 1-(2,2-Difluoroethyl)-6-((2R,5S)-2-methyl-5-(((2-(trifluoromethyl)pyridin-4-yl)oxy)methyl)piperidin-1-yl)-1H-pyrazolo[3,4-b]pyrazine] was 10 to 50 µM; that for `C[C@@H]1CC[C@H](COc2cccc(C(F)(F)F)n2)CN1c1cnc2cnn(CC(F)F)c2n1` [Compound 269, 1-(2,2-Difluoroethyl)-6-((2R,5S)-2-methyl-5-(((6-(trifluoromethyl)pyridin-2-yl)oxy)methyl)piperidin-1-yl)-1H-pyrazolo[3,4-b]pyrazine] was more than 100 µM; that for `COc1ccc(OCC2CCN(Cc3nnc(C4CC(N)C4)n3C)CC2)cc1` (stereo not shown) [Compound 473] was more than 100 µM.
The compound `FC(F)Cn1ncc2ncc(N3C[C@@H]4[C@@H](COc5cccc(C(F)(F)F)n5)[C@@H]4C3)nc21` [Compound 36, (1R,5S,6S)-3-[1-(2,2-Difluoroethyl)-1H-pyrazolo[3,4-b]pyrazin-6-yl]-6-({[6-(trifluoromethyl)pyridin-2-yl]oxy}methyl)-3-azabicyclo[3.1.0]hexane] showed an EC50 of 10 to 50 µM.
For `CN1CCC(COc2cccc(-c3cnc4ccccc4n3)c2)CC1` [Compound 428], the EC50 was in the range of 10 to 50 µM.
With `O=C(c1ccc2cc[nH]c2c1)N1CCC(Oc2cccc(C(F)(F)F)n2)CC1` [Compound 327, (1H-Indol-6-yl)(4-((6-(trifluoromethyl)pyridin-2-yl)oxy)piperidin-1-yl)methanone], the EC50 fell in the range of 10 to 50 µM.
`C[C@H]1C[C@@H](COc2cccnc2C(F)(F)F)CN(c2cnc3cnn(CC(F)F)c3n2)C1` [Compound 93, 1-(2,2-Difluoroethyl)-6-((3S,5R)-3-methyl-5-(((2-(trifluoromethyl)pyridin-3-yl)oxy)methyl)piperidin-1-yl)-1H-pyrazolo[3,4-b]pyrazine] displayed an EC50 of less than 10 µM.
As to `FC(F)Cn1ncc2ncc(N3CCCC(COc4cccnc4Cl)C3)nc21` (stereo not shown) [Compound 59, 2-Chloro-3-({1-[1-(2,2-difluoroethyl)pyrazolo[3,4-b]pyrazin-6-yl]piperidin-3-yl}methoxy) pyridine], the EC50 is less than 10 µM.
`FC(F)Cn1ncc2ncc(N3CCC(COc4ccnc(C(F)(F)F)c4)CC3)nc21` [Compound 315, 1-(2,2-Difluoroethyl)-6-(4-(((2-(trifluoromethyl)pyridin-4-yl)oxy)methyl)piperidin-1-yl)-1H-pyrazolo[3,4-b]pyrazine] displayed an EC50 of less than 10 µM.
Take `C[C@@H]1CC[C@H](COc2ncccc2C(F)(F)F)CN1c1cnc2cnn(CC(F)F)c2n1` [Compound 277, 1-(2,2-Difluoroethyl)-6-((2R,5S)-2-methyl-5-(((3-(trifluoromethyl)pyridin-2-yl)oxy)methyl)piperidin-1-yl)-1H-pyrazolo[3,4-b]pyrazine]: the EC50 was 10 to 50 µM.
In the case of `C[C@H](Oc1ccccc1C(F)(F)F)[C@@H]1CCCN(c2cnc3cnn(CC(F)F)c3n2)C1` (racemic) [Compound 5c], the EC50 was less than 10 µM.
Consider `FC(F)Cn1ncc2ncc(N3CCCC(COc4cccnc4C(F)(F)F)C3)nc21` (stereo not shown) [Compound 13, 3-({1-[1-(2,2-difluoroethyl)pyrazolo[3,4-b]pyrazin-6-yl]piperidin-3-yl}methoxy)-2-(trifluoromethyl)pyridine], for which the EC50 was less than 10 µM.
On to `O=C(c1cc(-c2cccc(F)c2)no1)N1CCCC(COc2ccccc2)C1` (stereo not shown) [Compound 197], for which the 50% effective concentration (EC50) was 10 to 50 µM.
On to `COc1ccc(OCC2CCN(Cc3c[nH]c(C#N)c3)CC2)cc1` [Compound 456], for which the EC50 was less than 10 µM.
Take `O=C(c1cnc2c(cnn2-c2ccccc2)n1)N1CCCC(COc2cccnc2C(F)(F)F)C1` (stereo not shown) [Compound 103, (1-Phenyl-1H-pyrazolo[3,4-b]pyrazin-5-yl)(3-(((2-(trifluoromethyl)pyridin-3-yl)oxy)methyl)piperidin-1-yl)methanone]: the EC50 fell in the range of 10 to 50 µM.
`FC(F)Cn1ncc2ncc(N3CC(COc4cccnc4C(F)(F)F)CC(F)(F)C3)nc21` (stereo not shown) [Compound 21, 3-({1-[1-(2,2-difluoroethyl)-1H-pyrazolo[3,4-b]pyrazin-6-yl]-5,5-difluoropiperidin-3-yl}methoxy)-2-(trifluoromethyl)pyridine] registered an EC50 of 10 to 50 µM.
`Cn1c(-c2ccccc2)nc2nc(C(=O)N3C[C@@H]4[C@@H](COc5cccnc5C(F)(F)F)[C@@H]4C3)cnc21` [Compound 105, (1-methyl-2-phenyl-1H-imidazo[4,5-b]pyrazin-5-yl)((1R,5S,6r)-6-(((2-(trifluoromethyl)pyridin-3-yl)oxy)methyl)-3-azabicyclo[3.1.0]hexan-3-yl)methanone] registered a concentration giving a half-maximal response (EC50) of more than 100 µM.
`CC(=O)c1ccc(OCC(=O)N2CCC(OCc3ccccc3)CC2)cc1` [Compound 478] gave an EC50 of 50 to 100 µM.
Compound `Cn1c(-c2ccc(F)cc2)nc2ncc(C(=O)N3C[C@@H]4[C@@H](COc5cccnc5C(F)(F)F)[C@@H]4C3)nc21` [Compound 224] yielded an EC50 of 10 to 50 µM.
For the compound `COc1ccc(OCC2CCN(C(=O)c3cnc(N)nc3C)CC2)cc1` [Compound 462], the EC50 was more than 100 µM.
`FC(F)Cn1ncc2ncc(N3CCC(COc4ccc(C(F)(F)F)nc4)CC3)nc21` [Compound 316, 1-(2,2-Difluoroethyl)-6-(4-(((6-(trifluoromethyl)pyridin-3-yl)oxy)methyl)piperidin-1-yl)-1H-pyrazolo[3,4-b]pyrazine] displayed a concentration giving a half-maximal response (EC50) of less than 10 µM.
`FC(F)Cn1ncc2ncc(N3CCC(COc4ccc(C(F)(F)F)cn4)CC3)nc21` [Compound 317, 1-(2,2-Difluoroethyl)-6-(4-(((5-(trifluoromethyl)pyridin-2-yl)oxy)methyl)piperidin-1-yl)-1H-pyrazolo[3,4-b]pyrazine] yielded an EC50 of 10 to 50 µM.
Take `CC(C)(C)CC(=O)N1CCC(COc2cccc(C(F)(F)F)n2)CC1` [Compound 351]: the EC50 was in the range of 10 to 50 µM.
For `CCCCC1(C(=O)N2CCCC(COc3ccccc3)C2)CCC1` (stereo not shown) [Compound 177], the EC50 lay in the range of 10 to 50 µM.
`O=C(c1ccc(N2CCCCCC2)cc1)N1CCCC(COc2ccccc2)C1` (stereo not shown) [Compound 156] showed an EC50 of 10 to 50 µM.
`O=C(c1ccn(Cc2ccccc2)n1)N1CCCC(COc2ccccc2)C1` (stereo not shown) [Compound 11] gave a half-maximal effective concentration (EC50) of 10 to 50 µM.
In turn, `COc1ccccc1OCC1CCCN(C(=O)c2c(-c3ccccc3)n(C)c3nccnc23)C1` (stereo not shown) [Compound 235, (3-((2-Methoxyphenoxy)methyl)piperidin-1-yl)(5-methyl-6-phenyl-5H-pyrrolo[2,3-b]pyrazin-7-yl)methanone] yielded a concentration for a half-maximal effect (EC50) of 10 to 50 µM.
`O=C(c1cc(CC2CC2)on1)N1CCCC(COc2ccccc2)C1` (stereo not shown) [Compound 188] came in with an EC50 of more than 100 µM.
